The values below come from patent publication US11584733B2, “Selective histone deacetylase inhibitors for the treatment of human disease” (Shuttle Pharmaceuticals, Inc., priority 2017, dated 2023).

The experiment addresses T1, Human recombinant HDAC6 (Homo sapiens, UniProt Q9UBN7).
T1 sequence (Q9UBN7 1-1215): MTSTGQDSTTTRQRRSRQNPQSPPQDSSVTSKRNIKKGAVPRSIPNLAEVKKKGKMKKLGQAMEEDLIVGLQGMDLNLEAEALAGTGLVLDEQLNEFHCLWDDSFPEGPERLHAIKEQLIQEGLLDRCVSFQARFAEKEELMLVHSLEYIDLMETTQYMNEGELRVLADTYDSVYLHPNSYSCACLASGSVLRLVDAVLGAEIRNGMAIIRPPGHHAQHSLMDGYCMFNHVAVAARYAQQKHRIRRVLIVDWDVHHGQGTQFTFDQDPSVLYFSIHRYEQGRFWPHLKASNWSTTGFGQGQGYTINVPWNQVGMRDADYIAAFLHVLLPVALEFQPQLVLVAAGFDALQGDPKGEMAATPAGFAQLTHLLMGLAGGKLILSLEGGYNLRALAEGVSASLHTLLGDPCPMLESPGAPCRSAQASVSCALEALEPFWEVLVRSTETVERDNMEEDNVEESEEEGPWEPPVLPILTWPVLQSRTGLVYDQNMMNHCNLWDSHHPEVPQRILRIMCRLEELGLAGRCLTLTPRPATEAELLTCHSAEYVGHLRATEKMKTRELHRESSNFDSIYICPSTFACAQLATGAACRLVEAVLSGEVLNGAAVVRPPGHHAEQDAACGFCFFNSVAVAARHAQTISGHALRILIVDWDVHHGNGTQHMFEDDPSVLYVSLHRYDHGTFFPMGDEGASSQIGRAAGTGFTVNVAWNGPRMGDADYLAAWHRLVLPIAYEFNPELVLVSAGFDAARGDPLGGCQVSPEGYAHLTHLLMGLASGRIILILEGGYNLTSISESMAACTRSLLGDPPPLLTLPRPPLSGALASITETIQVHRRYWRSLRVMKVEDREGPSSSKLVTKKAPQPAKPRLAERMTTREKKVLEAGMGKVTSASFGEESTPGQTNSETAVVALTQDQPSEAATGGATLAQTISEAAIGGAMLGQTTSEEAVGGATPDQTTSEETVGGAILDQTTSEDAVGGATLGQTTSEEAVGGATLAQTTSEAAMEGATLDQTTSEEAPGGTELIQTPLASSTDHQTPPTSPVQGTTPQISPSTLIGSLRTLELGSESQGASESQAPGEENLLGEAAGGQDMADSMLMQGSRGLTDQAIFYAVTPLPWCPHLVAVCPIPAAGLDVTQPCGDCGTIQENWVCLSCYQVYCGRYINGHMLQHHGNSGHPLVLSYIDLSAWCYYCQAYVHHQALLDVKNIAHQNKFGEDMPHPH
As to the kind of experiment: HDAC isomer assay, Fluor-de-Lys, HDAC6. Type of experiment: biochemical. Particulars: for EC50: Example 4, FIGS. 5, 6 and 8, read-out: EC50 against HDAC6; for greater potency for HDAC6 as compared to HDAC1: FIG. 14; for selectivity for HDAC6 as compared to pan-HDACs (and HDAC1, HDAC3), in words: FIGS. 1, 7, 8, 18. The procedure:
The HDAC isomer (HDAC1, 3, and 6) assays were performed as follows:
Materials: Human recombinant HDAC isomer (HDAC1, HDAC3, and HDAC6); Fluor-de-Lys HDAC substrates; 360 nm excitation 460 nm emission Plate Reader; Disposable pipettes; Pipet-aid; Pipette tips; Micro-pipetter; DMSO; Sterile micro-tubes and conical tubes; and Micro-centrifuge.
Test compounds and control preparation: All test compounds' stock solutions were made in 100% DMSO. Test compound dilutions were made in HDAC Assay buffer with a final concentration of DMSO less than or equal to 1%. Vehicle control was HDAC Assay buffer with 1% DMSO.
The reagents for the assay were prepared as follows:
1. All kit components were defrosted and these, and all dilutions described below, were kept on ice until use.
2. A sufficient amount of HDAC source diluted in Assay Buffer (BML-KI143) was prepared to provide for the assays that were performed (# of wells×15 μl). A 30-fold dilution of the HeLa Extract means that 15p L contains 0.5 μl of the undiluted Extract, an appropriate amount to use per well.
3. Dilution(s) of SAHA and/or Test Inhibitors were prepared in Assay Buffer (BML-KI143). Since 10 μl were used per well, and since the final volume of the HDAC reaction was 50p, these inhibitor dilutions were 5× their final concentration.
4. Dilution(s) of the Fluor de Lys® Substrate (BML-KI104; 50 mM) were prepared in Assay Buffer (BML-KI143) that were 2× the desired final concentration(s). For inhibitor screening, substrate concentrations at or below the Km are recommended. Twenty-five μL were used per well. […] Rapid mixing and dilution into room temperature buffer helped to prevent precipitation at high substrate concentration.
5. Shortly before use (<30 min.), sufficient Fluor de Lys® Developer was prepared for the assays to be performed (50 μl per well). First, the Fluor de Lys® Developer Concentrate was diluted 20-fold (e.g. 50 μl plus 950 μl Assay Buffer) in cold Assay Buffer (BML-K1143). […] The addition of SAHA to the Developer insures that HDAC activity stops when the Developer is added. The Developer was kept on ice until use.
1. Assay buffer, diluted trichostatin A or test inhibitor was added to appropriate wells of the microtiter plate.
2. Diluted HeLa extract or other HDAC sample was added to all wells except those that are to be “No Enzyme Controls.”
3. Diluted Fluor de Lys® Substrate and the samples in the microtiter plate were allowed to equilibrate to assay temperature (e.g. 25 or 37° C.).
4. HDAC reactions were initiated by adding diluted substrate (25 μl) to each well and mixing thoroughly.
5. HDAC reactions were allowed to proceed for desired length of time and then stop them by addition of Fluor de Lys® Developer (50 μl). The plates were incubated at room temperature (25° C.) for 10-15 min.
6. Samples were read in a microtiter-plate reading fluorimeter capable of excitation at a wavelength in the range 350-380 nm and detection of emitted light in the range 440-460 nm.

“And” between values parts separate entries of the source, which are not always exact repeats. Identical values can stand only once. “Also recorded” adds a separate entry of the source.

In the case of `O=C(CCCCCCC(=O)Nc1cccc2c1CN(C1CCC(=O)NC1=O)C2=O)NO` (stereo not shown) [SP-2-93, N^1-(2-(2,6-dioxopiperidin-3-yl)-1-oxoisoindolin-4-yl)-N^8-hydroxyoctanediamide], the EC50 – broadly, the concentration giving half of the maximal effect – came out at 6.2 nM; the “greater potency for HDAC6 as compared to HDAC1” value turned out to be 258 fold; the “selectivity for HDAC6 as compared to pan-HDACs (and HDAC1, HDAC3), in words” value (from here on “selectivity for HDAC6”) is “substantial preference and selectivity for HDAC6; also recorded: highly selective for HDAC 6”. Where the note is “Example 6, FIG. 18”, the “more selective for HDAC6 as compared to HDAC1” value is “about 26 times” and the “more selective for HDAC6 as compared to HDAC3” value is listed as “about 51 times”. Further, under “Example 6, FIG. 18, 2 mg/mL formulation in 5% DMSO/40% PEG 400/55% PBS, read-out: IC50 against HDAC6 protein”, the IC50 (in general, the concentration needed to halve the response being measured) came to 60 nM. Further, the “selectivity for HDAC6” value (listed as N^1-(2-(2,6-dioxopiperidin-3-yl)-1-oxoisoindolin-4-yl)-N^8-hydroxyoctanediamide) was “surprising selective for HDAC6”.

As to `O=C(CCCCCCC(=O)NC1CCC(=O)NC1=O)NO` (stereo not shown) [SP-2-59, N^1-(2,6-dioxopiperidin-3-yl)-N^8-hydroxyoctanediamide], the EC50 is 52 nM and 68 nM; the “greater potency for HDAC6 as compared to HDAC1” value came to 83 fold; the “selectivity for HDAC6” value is “substantial preference and selectivity for HDAC6”.
